Experimental findings from patent US20220235421A1, “DETECTING AND TREATING CISPLATIN SENSITIVE CANCER” (The Cleveland Clinic Foundation, priority 2021, published 2022) are described below.

In this assay the test system is epithelial-based cancer cell lines (GDSC). In words: Cell Line Persistence Curve of cisplatin IC50 in the GDSC dataset, by CisSig score cohort. As to conditions: cisplatin concentration approximately 5. From the text: FIG. 11C compares the distribution of IC50 between cohorts of GDSC cell lines in this top and bottom quintile of CisSig score. We are terming this plot a “Cell Line Persistence Curve”, which resembles a Kaplan-Meier survival curve, but uses IC50 in place of survival time for cell lines. […] For example, when cisplatin concentration reaches approximately 5 approximately 50% of the resistant cohort remains with a greater IC50, while only 20% of the sensitive cohort remains with a greater IC50. In other words, cell lines predicted to be resistant tend to have greater IC50 values and cell lines predicted to be sensitive tend to have lower IC50 values.
The drug response data in the GDSC database was last updated 27 Mar. 2018; this version is referred to as “GDSC2.” Cisplatin drug concentration is reported in μM. Raw viability data were processed using the R package, gdscIC50, where they were normalized with negative controls (media alone) and positive controls (media only wells with no cells). Dose-response curves were fit using a multi-level fixed effect model with a classic sigmoidal curve shape assumed. This model was fitted using all cell line/drug combinations that were screened instead of fitting separate models to individual drug-response series. […]

With `N.N.[Cl][Pt][Cl]` [cisplatin], the “proportion of the cohort remaining with a cisplatin IC50 greater than the cisplatin concentration” value reads like this: (resistant cohort (bottom quintile of CisSig score)) “approximately 50%”; (sensitive cohort (top quintile of CisSig score)) 20%.
